{
  "source": "ChEMBL document CHEMBL1201862",
  "about": "“PubChem BioAssay data set” (2004)",
  "test_in_all_cases": "growth of human tumour cells (NCI), 48 h",
  "key": {"NCI-H226": {"test_system": "NCI-H226"}, "MOLT-4": {"test_system": "MOLT-4"}, "XF498": {"test_system": "XF498"}, "U-251": {"test_system": "U-251"}, "UO-31": {"test_system": "UO-31"}, "KM-20L2": {"test_system": "KM-20L2"}, "EKVX": {"test_system": "EKVX"}, "ACHN": {"test_system": "ACHN"}, "CAKI-1": {"test_system": "CAKI-1"}, "UACC-62": {"test_system": "UACC-62"}, "RXF 393": {"test_system": "RXF 393"}, "RPMI-8226": {"test_system": "RPMI-8226"}, "SK-MEL-5": {"test_system": "SK-MEL-5"}, "LOX IMVI": {"test_system": "LOX IMVI"}, "Malme-3M": {"test_system": "Malme-3M"}, "TK-10": {"test_system": "TK-10"}, "OVCAR-5": {"test_system": "OVCAR-5"}, "HT-29": {"test_system": "HT-29"}, "COLO 205": {"test_system": "COLO 205"}, "786-0": {"test_system": "786-0"}, "NCI-H460": {"test_system": "NCI-H460"}, "SN12C": {"test_system": "SN12C"}, "HOP-62": {"test_system": "HOP-62"}, "M19-MEL": {"test_system": "M19-MEL"}, "HCT-116": {"test_system": "HCT-116"}, "HCT-15": {"test_system": "HCT-15"}, "DLD-1": {"test_system": "DLD-1"}, "UACC-257": {"test_system": "UACC-257"}, "HOP-18": {"test_system": "HOP-18"}, "HCC 2998": {"test_system": "HCC 2998"}, "SNB-78": {"test_system": "SNB-78"}, "SNB-75": {"test_system": "SNB-75"}, "DMS-273": {"test_system": "DMS-273"}, "SK-OV-3": {"test_system": "SK-OV-3"}, "SF-268": {"test_system": "SF-268"}, "NCI-H522": {"test_system": "NCI-H522"}, "A549": {"test_system": "A549"}, "OVCAR-8": {"test_system": "OVCAR-8"}, "SW-620": {"test_system": "SW-620"}, "SK-MEL-28": {"test_system": "SK-MEL-28"}, "HL-60": {"test_system": "HL-60"}, "NCI-H23": {"test_system": "NCI-H23"}, "IGROV-1": {"test_system": "IGROV-1"}, "OVCAR-4": {"test_system": "OVCAR-4"}, "K562": {"test_system": "K562"}, "M14": {"test_system": "M14"}, "RXF 631": {"test_system": "RXF 631"}, "SF-295": {"test_system": "SF-295"}, "SR": {"test_system": "SR"}, "SK-MEL-2": {"test_system": "SK-MEL-2"}, "SF-539": {"test_system": "SF-539"}, "LXFL 529": {"test_system": "LXFL 529"}, "CCRF-CEM": {"test_system": "CCRF-CEM"}, "HOP-92": {"test_system": "HOP-92"}, "A498": {"test_system": "A498"}, "KM12": {"test_system": "KM12"}, "OVCAR-3": {"test_system": "OVCAR-3"}, "SNB-19": {"test_system": "SNB-19"}},
  "note": "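1) Cells in 96-well plates. 2) Compound, 48 h, 5 concentrations. 3) Linear interpolation between surrounding doses. 4) Unreached endpoint = highest concentration. At the GI50, growth is halved.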 Activity calls are given as the source filed them. Rule as the data show it: active = GI50 up to about 1.1 µM and inactive = higher.",
  "data": [
    {"molecule": "CC(C)(C)c1nc2c(o1)/C(=N\\c1ccccc1)c1ccccc1C2=O", "values": [
      {"measurement": "GI50", "setting": "NCI-H226", "value": "9.42 µM (inactive)"},
      {"measurement": "GI50", "setting": "MOLT-4", "value": "3.95 µM (inactive)"},
      {"measurement": "GI50", "setting": "XF498", "value": "3.68 µM (inactive)"},
      {"measurement": "GI50", "setting": "U-251", "value": "3.85 µM (inactive)"},
      {"measurement": "GI50", "setting": "UO-31", "value": "5.89 µM (inactive)"},
      {"measurement": "GI50", "setting": "KM-20L2", "value": "27.8 µM (inactive)"},
      {"measurement": "GI50", "setting": "EKVX", "value": "13 µM (inactive)"},
      {"measurement": "GI50", "setting": "ACHN", "value": "4.69 µM (inactive)"},
      {"measurement": "GI50", "setting": "CAKI-1", "value": "12 µM (inactive)"},
      {"measurement": "GI50", "setting": "UACC-62", "value": "2.17 µM (inactive)"},
      {"measurement": "GI50", "setting": "RXF 393", "value": "4.91 µM (inactive)"},
      {"measurement": "GI50", "setting": "RPMI-8226", "value": "3.94 µM (inactive)"},
      {"measurement": "GI50", "setting": "SK-MEL-5", "value": "1.42 µM (inactive)"},
      {"measurement": "GI50", "setting": "LOX IMVI", "value": "0.603 µM (active)"},
      {"measurement": "GI50", "setting": "Malme-3M", "value": "1.4 µM (inactive)"},
      {"measurement": "GI50", "setting": "TK-10", "value": "30.2 µM (inactive)"},
      {"measurement": "GI50", "setting": "OVCAR-5", "value": "13.6 µM (inactive)"},
      {"measurement": "GI50", "setting": "HT-29", "value": "22.7 µM (inactive)"},
      {"measurement": "GI50", "setting": "COLO 205", "value": "32.3 µM (inactive)"},
      {"measurement": "GI50", "setting": "786-0", "value": "24.4 µM (inactive)"},
      {"measurement": "GI50", "setting": "NCI-H460", "value": "6.12 µM (inactive)"},
      {"measurement": "GI50", "setting": "SN12C", "value": "3.64 µM (inactive)"},
      {"measurement": "GI50", "setting": "HOP-62", "value": "17.3 µM (inactive)"},
      {"measurement": "GI50", "setting": "M19-MEL", "value": "0.718 µM (active)"},
      {"measurement": "GI50", "setting": "HCT-116", "value": "3.23 µM (inactive)"},
      {"measurement": "GI50", "setting": "HCT-15", "value": 4.25, "unit": "µM"},
      {"measurement": "GI50", "setting": "DLD-1", "value": "4.14 µM (inactive)"},
      {"measurement": "GI50", "setting": "UACC-257", "value": "1.72 µM (inactive)"},
      {"measurement": "GI50", "setting": "HOP-18", "value": "9.53 µM (inactive)"},
      {"measurement": "GI50", "setting": "HCC 2998", "value": "18.6 µM (inactive)"},
      {"measurement": "GI50", "setting": "SNB-78", "value": "4.27 µM (inactive)"},
      {"measurement": "GI50", "setting": "SNB-75", "value": "5.61 µM (inactive)"},
      {"measurement": "GI50", "setting": "DMS-273", "value": "3.71 µM (inactive)"},
      {"measurement": "GI50", "setting": "SK-OV-3", "value": "34.5 µM (inactive)"},
      {"measurement": "GI50", "setting": "SF-268", "value": "3.55 µM (inactive)"},
      {"measurement": "GI50", "setting": "NCI-H522", "value": "2.91 µM (inactive)"},
      {"measurement": "GI50", "setting": "A549", "value": "7.6 µM (inactive)"},
      {"measurement": "GI50", "setting": "OVCAR-8", "value": "2.72 µM (inactive)"},
      {"measurement": "GI50", "setting": "SW-620", "value": "4.47 µM (inactive)"},
      {"measurement": "GI50", "setting": "SK-MEL-28", "value": "4.4 µM (inactive)"},
      {"measurement": "GI50", "setting": "HL-60", "value": "2.87 µM (inactive)"},
      {"measurement": "GI50", "setting": "NCI-H23", "value": "1.44 µM (inactive)"},
      {"measurement": "GI50", "setting": "IGROV-1", "value": "6.87 µM (inactive)"},
      {"measurement": "GI50", "setting": "OVCAR-4", "value": "2.74 µM (inactive)"},
      {"measurement": "GI50", "setting": "K562", "value": "3.55 µM (inactive)"},
      {"measurement": "GI50", "setting": "M14", "value": "2.33 µM (inactive)"},
      {"measurement": "GI50", "setting": "RXF 631", "value": "22.5 µM (inactive)"},
      {"measurement": "GI50", "setting": "SF-295", "value": "3.99 µM (inactive)"},
      {"measurement": "GI50", "setting": "SR", "value": "3.94 µM (inactive)"},
      {"measurement": "GI50", "setting": "SK-MEL-2", "value": "2.53 µM (inactive)"},
      {"measurement": "GI50", "setting": "SF-539", "value": "2.99 µM (inactive)"},
      {"measurement": "GI50", "setting": "LXFL 529", "value": "5.48 µM (inactive)"},
      {"measurement": "GI50", "setting": "CCRF-CEM", "value": "5.61 µM (inactive)"},
      {"measurement": "GI50", "setting": "HOP-92", "value": "4.69 µM (inactive)"},
      {"measurement": "GI50", "setting": "A498", "value": "17.5 µM (inactive)"},
      {"measurement": "GI50", "setting": "KM12", "value": "11.7 µM (inactive)"},
      {"measurement": "GI50", "setting": "OVCAR-3", "value": "1.33 µM (inactive)"},
      {"measurement": "GI50", "setting": "SNB-19", "value": "8.17 µM (inactive)"}
    ]}
  ]
}
